Patent publication US20250026724A1, “(1,4,5-TRISUBSTITUTED 1H-PYRAZOL-3-YL)OXY-2-ALKYLTHIOALKYL ACIDS AND -ALKYL ACID DERIVATIVES, SALTS THEREOF AND USE THEREOF AS ACTIVE HERBICIDAL INGREDIENTS” (BAYER AKTIENGESELLSCHAFT, priority 2021, published 2025)

What was measured:
Format in all cases: in vivo
[1] = tested on: Abutilon theophrasti (ABUTH); assay: Post-emergence herbicidal action, greenhouse pot trial; conditions: visual rating after about 3 weeks
Summary of the method: (§1)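 Greenhouse-grown plants, sown in sandy loam, sprayed at the one-leaf stage (2–3 weeks after sowing) with WP or EC formulations in water plus 0.5% additive, 600 l/ha. Rates of 320 g/ha or lower. Visual rating after about 3 weeks versus untreated controls (100% = dead, 0% = as control).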

[2] = tested on: Alopecurus myosuroides (ALOMY); assay: as above; conditions: 320 g/ha, visual rating after about 3 weeks
Summary of the method: as §1

[3] = tested on: Amaranthus retroflexus (AMARE); assay: as above; conditions: visual rating after about 3 weeks
Summary of the method: as §1

Avena fatua (AVEFA) = assay: as above; conditions: 320 g/ha, visual rating after about 3 weeks
Summary of the method: as §1

[4] = tested on: Digitaria sanguinalis (DIGSA); assay: as above; conditions: visual rating after about 3 weeks
Summary of the method: as §1

[5] = tested on: Echinochloa crus-galli (ECHCG); assay: as above
Summary of the method: as §1

Lolium rigidum (LOLRI) = assay: as above; conditions: 320 g/ha, visual rating after about 3 weeks
Summary of the method: as §1

[6] = tested on: Matricaria inodora (MATIN); assay: as above; conditions: visual rating after about 3 weeks
Summary of the method: as §1

[7] = tested on: Pharbitis purpurea (PHBPU); assay: as above; conditions: visual rating after about 3 weeks
Summary of the method: as §1

[8] = tested on: Polygonum convolvulus (POLCO); assay: as above; conditions: visual rating after about 3 weeks
Summary of the method: as §1

Setaria viridis (SETVI) = assay: as above; conditions: for Post-emergence effect at 320 g/ha against SETVI in %: visual rating after about 3 weeks
Summary of the method: as §1

Viola tricolor (VIOTR) = assay: as above
Summary of the method: as §1

Zea mays (ZEAMX) = assay: Post-emergence crop plant compatibility, greenhouse pot trial; conditions: in comparison to untreated controls
Protocol: (§2) Seeds of monocotyledonous and dicotyledonous weeds and crop plants are placed in sandy loam in plastic or organic planting pots, covered with soil and cultivated in a greenhouse under controlled growth conditions. 2 to 3 weeks after sowing, the trial plants are treated at the one-leaf stage. The compounds of the invention, formulated in the form of wettable powders (WP) or as emulsion concentrates (EC), are then sprayed onto the green parts of the plants as aqueous suspension or emulsion with addition of 0.5% additive at a water application rate equivalent to 600 l/ha. After about 3 weeks of keeping the trial plants in the greenhouse under optimum growth conditions, the effect of the preparations is rated visually in comparison to untreated controls. For example, 100% activity=the plants have died, 0% activity=like control plants.
(§3) The observed effects on selected crop plants are reported here in comparison to the untreated controls (values in %). The appendices “a”, “b” and “c” give differentiation by dosage used with otherwise the same useful plants tested.
(§4) As shown by results from Tables B1 to B19, inventive compounds of the general formula (I) in the case of post-emergence treatment have good herbicidal efficacy against harmful plants, for example Abutilon theophrasti (ABUTH), Alopecurus myosuroides (ALOMY), Amaranthus retroflexus (AMARE), Avena fatua (AVEFA), Digitaria sanguinalis (DIGSA), Echinochloa crus-galli (ECHCG), Bassia scoparia (KCHSC), Lolium rigidum (LOLRI), Matricaria inodora (MATIN), Pharbitis purpurea (PHBPU), Polygonum convolvulus (POLCO), Setaria viridis (SETVI), Veronica persica (VERPE) and Viola tricolor (VIOTR) at an application rate of 320 g of active substance or less per hectare, and good crop plant compatibility in the case of organisms such as Oryza sativa (ORYSA), Zea mays (ZEAMX), Brassica napus (BRSNW), Glycine max (GLXMA) and Triticum aestivum (TRZAS) at an application rate of 320 g or less per hectare.

Bassia scoparia (KCHSC) = assay: Post-emergence herbicidal action, greenhouse pot trial
Summary of the method: as §1

[9] = tested on: Triticum aestivum (TRZAS); assay: Post-emergence crop plant compatibility, greenhouse pot trial; conditions: post-emergence, in comparison to untreated controls
Protocol: as §2, §3, §4

Glycine max (GLXMA) = assay: as above; conditions: in comparison to untreated controls
Protocol: as §2, §3, §4

Veronica persica (VERPE) = assay: Post-emergence herbicidal action, greenhouse pot trial; conditions: visual rating after about 3 weeks
Summary of the method: as §1

Oryza sativa (ORYSA) = assay: Post-emergence crop plant compatibility, greenhouse pot trial; conditions: in comparison to untreated controls
Protocol: as §2, §3, §4

[10] = visual rating after about 3 weeks

SMILES	Post-emergence effect against ZEAMX (crop plant compatibility) (Zea mays (ZEAMX); 20 g/ha) [%]	Post-emergence effect against TRZAS (crop plant compatibility) ([9]; 20 g/ha) [%]	Post-emergence effect at 80 g/ha against ABUTH in % [1] [%]	Post-emergence effect at 320 g/ha against ABUTH in % [1] [%]	Post-emergence effect at 320 g/ha against AMARE in % [3] [%]	Post-emergence effect at 320 g/ha against AVEFA in % (Avena fatua (AVEFA)) [%]	Post-emergence effect at 320 g/ha against DIGSA in % [4] [%]	Post-emergence effect at 320 g/ha against ECHCG in % [5, 10] [%]	Post-emergence effect at 320 g/ha against LOLRI in % (Lolium rigidum (LOLRI)) [%]	Post-emergence effect at 80 g/ha against MATIN in % [6] [%]	Post-emergence effect at 320 g/ha against MATIN in % [6] [%]	Post-emergence effect at 80 g/ha against PHBPU in % [7] [%]	Post-emergence effect at 320 g/ha against PHBPU in % [7] [%]	Post-emergence effect at 80 g/ha against POLCO in % [8] [%]	Post-emergence effect at 320 g/ha against POLCO in % [8] [%]	Post-emergence effect at 320 g/ha against SETVI in % (Setaria viridis (SETVI)) [%]	Post-emergence effect against VIOTR (Viola tricolor (VIOTR); 80 g/ha) [%]	Post-emergence effect against VIOTR (Viola tricolor (VIOTR); 320 g/ha) [%]	Post-emergence effect at 80 g/ha against AMARE in % [3] [%]	Post-emergence effect against KCHSC (Bassia scoparia (KCHSC); 320 g/ha) [%]	also measured
COC(=O)CCOC(=O)C(Oc1nn(-c2ncccc2F)c(-c2cncc(F)c2)c1Br)SC (stereo not drawn) [Example I-45]	0	0	90	90	90	100	90	90	100	90	90	80	80	80	80	90	90	90	90	90	Post-emergence action at 20 g/ha against ABUTH in % [1]: 90%; Post-emergence effect at 20 g/ha against AMARE in % [3]: 80%; Post-emergence effect at 20 g/ha against KCHSC in % (Bassia scoparia (KCHSC); 20 g/ha, visual rating after about 3 weeks): 90%; Post-emergence effect against KCHSC (Bassia scoparia (KCHSC); 80 g/ha): 90%; Post-emergence effect at 80 g/ha against DIGSA in % [4]: 80%; Post-emergence effect at 20 g/ha against MATIN in % ([6]; 20 g/ha): 80%; Post-emergence effect against VIOTR (Viola tricolor (VIOTR); 20 g/ha): 80%; Post-emergence effect against ZEAMX (crop plant compatibility) (Zea mays (ZEAMX); 80 g/ha): 0%
COC(=O)CCOC(=O)C(Oc1nn(-c2ccccc2F)c(-c2ccc(F)nc2)c1I)SC (stereo not drawn) [Example I-54]	0	0		80	90		80	90			80				80	90	80	90	90		Post-emergence effect at 320 g/ha against ALOMY in % [2]: 80%; Post-emergence effect against GLXMA (crop plant compatibility) (Glycine max (GLXMA); 20 g/ha): 0%; Post-emergence effect against GLXMA (crop plant compatibility) (Glycine max (GLXMA); 80 g/ha): 0%
COC(=O)CCOC(=O)C(Oc1nn(-c2ncccc2F)c(-c2cncc(F)c2)c1C1CC1)SC (stereo not drawn) [Example I-63]	0	20	80	90	90	100		90	90	80	90	90	90		80	90	90	90	80	90	Post-emergence action at 20 g/ha against ABUTH in % [1]: 80%; Post-emergence effect at 20 g/ha against AMARE in % [3]: 80%; Post-emergence effect at 80 g/ha against VERPE in % (Veronica persica (VERPE); 80 g/ha): 80%; Post-emergence effect at 320 g/ha against VERPE in % (Veronica persica (VERPE); 320 g/ha): 90%; Post-emergence effect against VIOTR (Viola tricolor (VIOTR); 20 g/ha): 90%
CCOC(=O)C(Oc1nn(-c2cc(F)ccc2F)c(-c2cncc(F)c2)c1C1CC1)SC (stereo not drawn) [Example I-05]	20	0																			pest or weed control at 320 g/ha ([5]; Echinochloa crus-galli, 504 h, read-out: Post-emergence effect at 320 g/ha against ECHCG in %): 80%; pest or weed control at 320 g/ha (Setaria viridis (SETVI); Setaria viridis, 504 h, read-out: Post-emergence effect at 320 g/ha against SETVI in %): 90%; Post-emergence effect against GLXMA (crop plant compatibility) (Glycine max (GLXMA); 20 g/ha): 0%; Post-emergence effect against GLXMA (crop plant compatibility) (Glycine max (GLXMA); 80 g/ha): 10%; Post-emergence effect against ORYSA (crop plant compatibility) (Oryza sativa (ORYSA); 20 g/ha): 0%; Post-emergence effect against ORYSA (crop plant compatibility) (Oryza sativa (ORYSA); 80 g/ha): 0%; Post-emergence effect against ORYSA (crop plant compatibility) (Oryza sativa (ORYSA); 320 g/ha): 10%; Post-emergence effect against TRZAS (crop plant compatibility) ([9]; 80 g/ha): 10%
COC(=O)C(C)COC(=O)C(Oc1nn(-c2ccccc2F)c(-c2ccc(F)nc2)c1I)SC (stereo not drawn) [Example I-53]		0		80	90		80	100			80		80		90	90	80	90		80	Post-emergence effect against GLXMA (crop plant compatibility) (Glycine max (GLXMA); 20 g/ha): 0%; Post-emergence effect against GLXMA (crop plant compatibility) (Glycine max (GLXMA); 80 g/ha): 0%

Now from value to compound, other results behind:

Post-emergence effect against ZEAMX (crop plant compatibility) (Zea mays (ZEAMX); 20 g/ha) [%]	Post-emergence effect against TRZAS (crop plant compatibility) ([9]; 20 g/ha) [%]	SMILES	Post-emergence effect at 80 g/ha against ABUTH in % [1] [%]	Post-emergence effect at 320 g/ha against ABUTH in % [1] [%]	Post-emergence effect at 320 g/ha against AMARE in % [3] [%]	Post-emergence effect at 320 g/ha against AVEFA in % (Avena fatua (AVEFA)) [%]	Post-emergence effect at 320 g/ha against DIGSA in % [4] [%]	Post-emergence effect at 320 g/ha against ECHCG in % [5, 10] [%]	Post-emergence effect at 320 g/ha against LOLRI in % (Lolium rigidum (LOLRI)) [%]	Post-emergence effect at 80 g/ha against MATIN in % [6] [%]	Post-emergence effect at 320 g/ha against MATIN in % [6] [%]	Post-emergence effect at 80 g/ha against PHBPU in % [7] [%]	Post-emergence effect at 320 g/ha against PHBPU in % [7] [%]	Post-emergence effect at 80 g/ha against POLCO in % [8] [%]	Post-emergence effect at 320 g/ha against POLCO in % [8] [%]	Post-emergence effect at 320 g/ha against SETVI in % (Setaria viridis (SETVI)) [%]	Post-emergence effect against VIOTR (Viola tricolor (VIOTR); 80 g/ha) [%]	Post-emergence effect against VIOTR (Viola tricolor (VIOTR); 320 g/ha) [%]	Post-emergence effect at 80 g/ha against AMARE in % [3] [%]	Post-emergence effect against KCHSC (Bassia scoparia (KCHSC); 320 g/ha) [%]	also measured
0		COC(=O)CCOC(=O)C(Oc1nn(-c2ncccc2F)c(-c2ccc(F)nc2)c1Br)SC (single isomer, unassigned) [Example I-23]	80	90	80	80	90	90	90	80	90	80	90	80	90	90	80	90			Post-emergence effect at 320 g/ha against ALOMY in % [2]: 80%; Post-emergence effect at 80 g/ha against DIGSA in % [4]: 90%; Post-emergence effect at 80 g/ha against ECHCG in % ([5]; 80 g/ha, visual rating after about 3 weeks): 90%
0	0	COC(=O)CCOC(=O)C(Oc1nn(-c2ncccc2F)c(-c2ccc(F)nc2)c1Br)SC (single isomer, unassigned) [Example I-22]	90	90	80			90				90	90	90	90	80	90	90		90	Post-emergence effect at 20 g/ha against PHBPU in % ([7]; 20 g/ha): 80%; Post-emergence effect against VIOTR (Viola tricolor (VIOTR); 20 g/ha): 80%
